Test results reported in BindingDB's records for doi:10.1016/j.bmcl.2011.12.066 (Daiichi Sankyo, 2012).

Target: T1, Peroxisome proliferator-activated receptor gamma (Homo sapiens, UniProt P37231)
T1 sequence (P37231 whole entry): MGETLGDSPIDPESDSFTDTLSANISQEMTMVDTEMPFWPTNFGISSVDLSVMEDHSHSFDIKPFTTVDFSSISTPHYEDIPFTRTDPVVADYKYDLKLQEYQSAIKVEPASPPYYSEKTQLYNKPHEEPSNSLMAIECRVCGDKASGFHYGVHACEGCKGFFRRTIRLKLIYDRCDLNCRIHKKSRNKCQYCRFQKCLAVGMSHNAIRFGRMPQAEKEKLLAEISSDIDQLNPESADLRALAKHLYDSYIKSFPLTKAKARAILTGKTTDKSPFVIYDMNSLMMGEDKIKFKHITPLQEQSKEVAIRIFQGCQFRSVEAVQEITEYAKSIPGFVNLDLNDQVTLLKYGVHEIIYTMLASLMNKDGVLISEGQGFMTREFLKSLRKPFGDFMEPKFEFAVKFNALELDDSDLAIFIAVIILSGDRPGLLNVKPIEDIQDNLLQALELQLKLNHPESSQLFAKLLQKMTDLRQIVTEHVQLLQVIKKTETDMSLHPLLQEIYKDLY
Test: Partial agonist activity at human PPARgamma expressed in MG-63 cells by reporter gene-based transactivation assay

SMILES	EC50
COc1cc(O)c2c(c1C(=O)NCc1cc(O)cc3ccccc13)OC1=CC(=O)C(C(C)=O)C(=O)[C@]12C (some centres not stated)	130 nM
COC(=O)CCc1cc(CNC(=O)c2c(OC)cc(O)c3c2OC2=CC(=O)C(C(C)=O)C(=O)[C@]23C)c2ccccc2c1 (some centres not stated)	130 nM
